ChEMBL document CHEMBL4261502, “Histone lysine methyltransferase structure activity relationships that allow for segregation of G9a inhibition and anti-Plasmodium activity” (Medchemcomm, 2017)

test system: Plasmodium falciparum; assay: Antiplasmodial activity against Plasmodium falciparum 3D7 after 3 days by SYBR green1 dye based assay; type: functional, organism-based; settings: 3D7, 72 h

IC50 | SMILES
> 2000 nM | COc1cc2c(NC3CCN(C)CC3)nc(N3CCCN(C)CC3)nc2cc1OCCN(C)C
> 2000 nM | COc1cc2c(NC3CCN(C)CC3)nc(N3CCCN(C)CC3)nc2cc1OCCCN1CCCC1
> 2000 nM | COc1cc2c(NC3CCN(C)CC3)nc(N3CCCN(C)CC3)nc2cc1OCCCN1CCCCC1
43 nM | COc1cc2nc(N3CCCN(C)CC3)nc(NC3CCN(Cc4ccccc4)CC3)c2cc1OC
> 300 nM | COc1cc2nc(N3CCN(C)CC3)nc(NC3CCN(C)CC3)c2cc1OC
> 2000 nM | COc1cc2c(NC3CCN(C)CC3)nc(N3CCCN(C)CC3)nc2cc1OCCCN(C)C
> 300 nM | COc1cc2nc(N3CCCN(C)CC3)nc(NC3CCN(C)CC3)c2cc1OC

SMILES | IC50
COc1cc2c(NC3CCN(C)CC3)nc(N3CCCN(C)CC3)nc2cc1OCc1ccccc1 | 43 nM
